The values below come from ChEMBL document CHEMBL1137635, “Multiple antibiotics exert delayed effects against the Plasmodium falciparum apicoplast” (Antimicrob Agents Chemother, 2007).

One may read the IC50 as the midpoint of a concentration-inhibition curve. What is called Cmax is the peak of the concentration-time curve. As a reminder, the half-life is the time in which the quantity being followed falls by half. Low values mean rapid decline, high ones slow decline. In general, Tmax refers to the time from dosing to the highest level.

Data set [1] concerns Plasmodium falciparum. Put plainly: Antimalarial activity as 3rd generation parasitaemia after 96 hrs against chloroquine-sensitive Plasmodium falciparum 3D7 infected human erythrocytes at 1 uM 0-24 hrs post invasion. Format: functional.
Data set [2] has as its system Plasmodium falciparum. Put plainly: Antimalarial activity as segregation of apicoplasts against chloroquine-sensitive ACP1-GFP-labeled Plasmodium falciparum 3D7 schizont infected human erythrocytes at 1 uM 96 hrs post infection. Type of data set: functional, organism-based.
The test system of data set [3] is Plasmodium falciparum. Put plainly: Antimalarial activity as 3rd generation parasitaemia after 96 hrs against chloroquine-sensitive Plasmodium falciparum 3D7 infected human erythrocytes at 1 uM 0-48 hrs post invasion. Type of data set: functional.
For data set [4], the system named is Plasmodium falciparum. Put plainly: Antimalarial activity in chloroquine-sensitive ACP1-GFP-labeled Plasmodium falciparum 3D7 after 48 hrs at 2xIC50 dosed 96 hrs post infection. Type of data set: functional, organism-based.
Data set [5] has as its system Plasmodium falciparum. Put plainly: Antimalarial activity as parasitaemia against chloroquine-sensitive ACP1-GFP-labeled Plasmodium falciparum 3D7 trophozoite infected human erythrocytes at 2xIC50 dosed 96 hrs post infection. Format: functional.
Data set [6] deals with Plasmodium falciparum. Put plainly: Antimalarial activity as segregation of apicoplasts against chloroquine-sensitive Plasmodium falciparum 3D7 infected human erythrocytes at 1 uM 96 hrs post infection. Type of data set: functional, organism-based.
Data set [7] relates to Plasmodium falciparum. Put plainly: Antimalarial activity as abnormal apicoplast morphology in chloroquine-sensitive ACP1-GFP-labeled Plasmodium falciparum 3D7 trophozoite infected human erythrocytes at 2xIC50 dosed 96 hrs post infection. Type of data set: functional.
For data set [8], the system named is Plasmodium falciparum. Put plainly: Antimalarial activity as 3rd generation parasitaemia after 96 hrs against chloroquine-sensitive Plasmodium falciparum 3D7 infected human erythrocytes at 1 uM 12-36 hrs post invasion. Type of data set: functional.
In data set [9] the test system is Plasmodium falciparum. Put plainly: Antimalarial activity as 3rd generation parasitaemia after 96 hrs against chloroquine-sensitive Plasmodium falciparum 3D7 infected human erythrocytes at 1 uM 24-36 hrs post invasion. Format: functional.
The test system of data set [10] is Plasmodium falciparum. Put plainly: Antimalarial activity as 3rd generation parasitaemia after 96 hrs against chloroquine-sensitive Plasmodium falciparum 3D7 infected human erythrocytes at 1 uM treated 12-24 hrs post invasion. Format: functional.
Data set [11] has as its system Plasmodium falciparum. Put plainly: Antimalarial activity as 2nd generation ring-stage chloroquine-resistant Plasmodium falciparum W2 after 48 hrs by flow cytometry. Format: functional, organism-based. Conditions: W2, 48 h. (A flow cytometer gives signals particle by particle.)
Data set [12] has as its system Plasmodium falciparum. Put plainly: Antimalarial activity as abnormal apicoplast morphology in chloroquine-sensitive ACP1-GFP-labeled Plasmodium falciparum 3D7 after 48 hrs at 2xIC50 dosed 96 hrs post infection. Format: functional, organism-based.
For data set [13], the system named is Plasmodium falciparum. Put plainly: Antimalarial activity as 3rd generation ring-stage chloroquine-resistant Plasmodium falciparum W2 after 48 hrs dose then 48 hrs drug-free. Type of data set: functional, organism-based. To be noted: W2, 48 h, read-out: IC50.
Data set [14] deals with Plasmodium falciparum. Put plainly: Antimalarial activity as 3rd generation ring-stage chloroquine-sensitive Plasmodium falciparum 3D7 after 48 hrs dose then 48 hrs drug-free. Format: functional, organism-based. To be noted: 3D7, 48 h.
In data set [15] the test system is Plasmodium falciparum. Put plainly: Antimalarial activity as 3rd generation parasitaemia after 96 hrs against chloroquine-sensitive Plasmodium falciparum 3D7 infected human erythrocytes at 1 uM 12-48 hrs post invasion. Format: functional.
The nature of data set [16]: Cmax in patient with tuberculosis at 600 mg, po once daily for 15 to 18 days. Format: ADME, organism-based. On the set-up: dose 600 mg, route oral. Conditions: human, in vivo.
Data set [17] deals with Plasmodium falciparum. Put plainly: Antimalarial activity as 3rd generation parasitaemia after 96 hrs against chloroquine-sensitive Plasmodium falciparum 3D7 infected human erythrocytes at 1 uM 0-12 hrs post invasion. Type of data set: functional.
The nature of data set [18]: Half life in patient with tuberculosis at 600 mg, po once daily for 15 to 18 days. Format: ADME, organism-based. To be noted: human, in vivo.
Data set [19] concerns Plasmodium falciparum. Put plainly: Antimalarial activity as 3rd generation parasitaemia after 96 hrs against chloroquine-sensitive Plasmodium falciparum 3D7 infected human erythrocytes at 1 uM 36-48 hrs post invasion. Format: functional.
Data set [20] in a line: Tmax in patient with tuberculosis at 600 mg, po once daily for 15 to 18 days. Type of data set: ADME, organism-based. To be noted: human, in vivo.
Data set [21] relates to Plasmodium falciparum. Put plainly: Antimalarial activity as arrested schizont maturation in chloroquine-sensitive Plasmodium falciparum 3D7 infected human erythrocytes after 48 hrs at 1 uM dosed 96 hrs post infection. Type of data set: functional, organism-based.
Data set [22] concerns Plasmodium falciparum. Put plainly: Antimalarial activity as 3rd generation parasitaemia after 96 hrs against chloroquine-sensitive Plasmodium falciparum 3D7 infected human erythrocytes at 1 uM 24-48 hrs post invasion. Format: functional.
The test system of data set [23] is Plasmodium falciparum. Put plainly: Antimalarial activity as 3rd generation parasitaemia after 96 hrs against chloroquine-sensitive Plasmodium falciparum 3D7 infected human erythrocytes at 1 uM 0-36 hrs post invasion. Type of data set: functional.
For data set [24], the system named is Plasmodium falciparum. Put plainly: Antimalarial activity as 2nd generation ring-stage chloroquine-sensitive Plasmodium falciparum 3D7 after 48 hrs by flow cytometry. Format: functional, organism-based. Conditions: 3D7, 48 h.
Data set [25] in a line: Tmax in patient with severe malaria at 200 mg, perorally. Type of data set: ADME, organism-based. To be noted: human, in vivo, po.
Data set [26] has as its system Plasmodium falciparum. Put plainly: (§1) Antimalarial activity as 2nd generation parasitaemia after 48 hrs against chloroquine-sensitive Plasmodium falciparum 3D7 infected human erythrocytes at 6 uM 0-24 hrs post invasion. Format: functional.
In data set [27] the test system is Plasmodium falciparum. Put plainly: Antimalarial activity as trophozoite arrest after 24 hrs against chloroquine-sensitive Plasmodium falciparum 3D7 infected human erythrocytes at 6 uM 96 hrs post infection. Type of data set: functional, organism-based.
The test system of data set [28] is Plasmodium falciparum. Put plainly: Antimalarial activity as 2nd generation parasitaemia after 48 hrs against chloroquine-sensitive Plasmodium falciparum 3D7 infected human erythrocytes at 6 uM 36-48 hrs post invasion. Format: functional.
Data set [29] concerns Plasmodium falciparum. The description is as §1. Format: functional. The source holds these as a separate data set.
Data set [30] deals with Plasmodium falciparum. Put plainly: Antimalarial activity as 2nd generation parasitaemia after 48 hrs against chloroquine-sensitive Plasmodium falciparum 3D7 infected human erythrocytes at 6 uM 24-36 hrs post invasion. Type of data set: functional.
The test system of data set [31] is Plasmodium falciparum. Put plainly: Antimalarial activity as 2nd generation parasitaemia after 48 hrs against chloroquine-sensitive Plasmodium falciparum 3D7 infected human erythrocytes at 6 uM 12-48 hrs post invasion. Type of data set: functional.
Data set [32] deals with Plasmodium falciparum. Put plainly: Antimalarial activity as 2nd generation parasitaemia after 48 hrs against chloroquine-sensitive Plasmodium falciparum 3D7 infected human erythrocytes at 6 uM 24-48 hrs post invasion. Format: functional.
Data set [33] deals with Plasmodium falciparum. Put plainly: Antimalarial activity as 2nd generation parasitaemia after 48 hrs against chloroquine-sensitive Plasmodium falciparum 3D7 infected human erythrocytes at 6 uM 0-48 hrs post invasion. Type of data set: functional.
Data set [34] relates to Plasmodium falciparum. Put plainly: Antimalarial activity as 2nd generation parasitaemia after 48 hrs against chloroquine-sensitive Plasmodium falciparum 3D7 infected human erythrocytes at 6 uM 12-24 hrs post invasion. Type of data set: functional.
Data set [35] deals with Plasmodium falciparum. Put plainly: Antimalarial activity as 2nd generation parasitaemia after 48 hrs against chloroquine-sensitive Plasmodium falciparum 3D7 infected human erythrocytes at 6 uM 12-36 hrs post invasion. Type of data set: functional.
Data set [36] has as its system Plasmodium falciparum. Put plainly: Antimalarial activity as 2nd generation parasitaemia after 48 hrs against chloroquine-sensitive Plasmodium falciparum 3D7 infected human erythrocytes at 6 uM 0-12 hrs post invasion. Type of data set: functional.

Calls of active or inactive are those of the source. The rule behind the calls is not given here.

Turning to `C[C@H]1c2cccc(O)c2C(=O)C2=C(O)[C@]3(O)C(=O)C(C(N)=O)=C(O)[C@@H](N(C)C)[C@@H]3[C@@H](O)[C@@H]21.O` [DOXYCYCLINE], the Activity in the data set with Plasmodium falciparum [1] was 69%; in the data set with Plasmodium falciparum [3] it was 9%; in the data set with Plasmodium falciparum [5], 97.2%; in the data set on Plasmodium falciparum [7], 83.6%; in the data set with Plasmodium falciparum [8], 12%; in the data set on Plasmodium falciparum [9] it was 41%. The Activity in the data set with Plasmodium falciparum [10] was determined as 44%; with Plasmodium falciparum [15], 13%; in the data set with Plasmodium falciparum [17], 89%; with Plasmodium falciparum [19] it was 121%; in the data set on Plasmodium falciparum [22] it was 87%; in the data set on Plasmodium falciparum [23], 24%. Also, the outcome in the data set on Plasmodium falciparum [2], in the data set with Plasmodium falciparum [4], with Plasmodium falciparum [6] and in the data set on Plasmodium falciparum [12] was Active. Also, the IC50 worked out at 3300 nM with Plasmodium falciparum [11], 211 nM in the data set on Plasmodium falciparum [13], 453 nM with Plasmodium falciparum [14] and 5320 nM with Plasmodium falciparum [24]. Besides, the peak level in data set [16] (Cmax) was 6.9 µM. This compound had a half-life in data set [18] of 7 h. For the same compound, in data set [20], the time to peak (Tmax) turned out to be 2 h. Also, the outcome in the data set on Plasmodium falciparum [21] was inactive.
As to `CO[C@H]1/C=C/O[C@@]2(C)Oc3c(C)c(O)c4c(O)c(c(/C=N/N5CCN(C)CC5)c(O)c4c3C2=O)NC(=O)/C(C)=C\C=C\[C@H](C)[C@H](O)[C@@H](C)[C@@H](O)[C@@H](C)[C@H](OC(C)=O)[C@@H]1C` [RIFAMPIN], in data set [25], the Tmax was determined as 1 h. Moreover, the Activity with Plasmodium falciparum [26] turned out to be 16%; with Plasmodium falciparum [28], 93%; with Plasmodium falciparum [29], 14%; with Plasmodium falciparum [30], 49%; in the data set on Plasmodium falciparum [31], 13%; in the data set on Plasmodium falciparum [32], 25%. Moreover, the Activity with Plasmodium falciparum [33] is listed as 15%; with Plasmodium falciparum [34] it was 36%; in the data set on Plasmodium falciparum [35], 13%; in the data set with Plasmodium falciparum [36], 65%. Moreover, in the data set on Plasmodium falciparum [27], the result was Active. The IC50 with Plasmodium falciparum [11] amounted to 274 nM; with Plasmodium falciparum [13] it was 528 nM; with Plasmodium falciparum [14] it was 2830 nM; in the data set with Plasmodium falciparum [24] it was 2990 nM.
